Experimental data from paper PMC1262763, “Evolutionary selection across the nuclear hormone receptor superfamily with a focus on the NR1I subfamily (vitamin D, pregnane X, and constitutive androstane receptors)” (Nuclear Receptor, 2005).
Where a name gives a salt, the structure may show the parent alone.

What was measured:
human PXR = target: T1, human PXR (Homo sapiens, UniProt O75469); experiment: luciferase reporter transactivation, HepG2-NTCP cells; assay type: cell-based; conditions: concentration-response curve, normalized to […] rifampicin
T1 construct: gene NR1I2; full-length receptor (DBD and LBD), transfected in HepG2-NTCP cells with CYP3A4-PXRE-Luc reporter
T1 sequence (O75469 1-434): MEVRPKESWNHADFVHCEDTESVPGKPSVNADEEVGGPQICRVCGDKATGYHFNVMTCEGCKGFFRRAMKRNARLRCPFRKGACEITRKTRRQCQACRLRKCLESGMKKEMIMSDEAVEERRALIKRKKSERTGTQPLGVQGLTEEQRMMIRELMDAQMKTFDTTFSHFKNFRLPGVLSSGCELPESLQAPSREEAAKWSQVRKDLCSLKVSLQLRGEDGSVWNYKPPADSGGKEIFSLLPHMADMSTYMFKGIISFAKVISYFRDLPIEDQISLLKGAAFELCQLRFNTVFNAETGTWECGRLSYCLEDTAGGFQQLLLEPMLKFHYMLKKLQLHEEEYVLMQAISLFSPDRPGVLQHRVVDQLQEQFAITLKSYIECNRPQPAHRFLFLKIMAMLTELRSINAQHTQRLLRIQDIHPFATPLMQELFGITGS

human VDR = human VDR (Homo sapiens, UniProt P11473); conditions: maximal activator […] calcitriol
zebrafish PXR = target: T2, zebrafish PXR (Danio rerio, UniProt A5WYG8); experiment: GAL4-LBD luciferase reporter transactivation, HepG2-NTCP cells; assay type: cell-based; conditions: concentration-response curve; normalized to […]α-androstan-3α-ol
T2 construct: gene nr1i2; LBD only, fused to GAL4 (tk-UAS-Luc reporter), transfected in HepG2-NTCP cells
T2 sequence (A5WYG8 144-430 limits assumed): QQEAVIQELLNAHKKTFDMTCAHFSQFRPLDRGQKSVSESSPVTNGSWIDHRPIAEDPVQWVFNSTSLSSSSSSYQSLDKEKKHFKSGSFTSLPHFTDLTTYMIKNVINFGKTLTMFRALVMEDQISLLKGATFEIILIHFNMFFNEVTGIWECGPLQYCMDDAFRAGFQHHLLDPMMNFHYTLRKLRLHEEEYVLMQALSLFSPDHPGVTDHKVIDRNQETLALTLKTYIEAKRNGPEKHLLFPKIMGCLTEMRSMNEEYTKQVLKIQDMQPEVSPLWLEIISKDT

Xenopus laevis BXRα = target: T3, Xenopus laevis BXRα (Xenopus laevis, UniProt Q91839); experiment: as above; assay type: cell-based; conditions: concentration-response curve; normalized to […] n-butyl-p-aminobenzoate
T3 construct: gene nr1i2.L; LBD only, fused to GAL4 (tk-UAS-Luc reporter), transfected in HepG2-NTCP cells
T3 sequence (Q91839 141-386 limits assumed): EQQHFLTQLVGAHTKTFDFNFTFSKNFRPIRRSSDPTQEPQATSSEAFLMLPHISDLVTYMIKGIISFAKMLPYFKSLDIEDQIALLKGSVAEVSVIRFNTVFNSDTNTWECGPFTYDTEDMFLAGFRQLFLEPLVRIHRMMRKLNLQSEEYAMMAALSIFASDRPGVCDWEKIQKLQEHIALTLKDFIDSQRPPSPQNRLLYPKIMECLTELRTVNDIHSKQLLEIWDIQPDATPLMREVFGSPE

human VDR, sequence (P11473 whole entry, the tested form may be a part): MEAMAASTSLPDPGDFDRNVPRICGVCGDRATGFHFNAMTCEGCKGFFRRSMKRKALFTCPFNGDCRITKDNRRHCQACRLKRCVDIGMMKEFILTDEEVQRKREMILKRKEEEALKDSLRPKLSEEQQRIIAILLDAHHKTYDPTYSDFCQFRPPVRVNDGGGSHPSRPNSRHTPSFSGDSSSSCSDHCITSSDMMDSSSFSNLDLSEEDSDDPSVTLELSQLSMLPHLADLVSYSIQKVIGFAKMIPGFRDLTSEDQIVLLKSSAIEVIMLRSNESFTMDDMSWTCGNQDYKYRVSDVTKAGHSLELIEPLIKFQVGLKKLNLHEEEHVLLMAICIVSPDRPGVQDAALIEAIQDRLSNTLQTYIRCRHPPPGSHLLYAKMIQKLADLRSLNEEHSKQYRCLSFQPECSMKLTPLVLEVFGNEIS

efficacy relative to calcitriol (human VDR) [%]	Compound	luciferase reporter transactivation, HepG2-NTCP cells (human PXR)	GAL4-LBD luciferase reporter transactivation, HepG2-NTCP cells (zebrafish PXR)	GAL4-LBD luciferase reporter transactivation, HepG2-NTCP cells (Xenopus laevis BXRα)	luciferase reporter transactivation, HepG2-NTCP cells (human PXR; OATP co-transfected)
15	C[C@H](CCC(=O)O)[C@H]1CC[C@H]2[C@@H]3CC[C@@H]4CC(=O)CC[C@]4(C)[C@H]3CC[C@]12C [3-ketolithocholic acid]	the early bile salts petromyzonol sulfate and scymnol sulfate, 3-ketolithocholic acid, and the benzoate analog			
	CCCOC(=O)c1ccc(O)cc1 [n-propyl-p-hydroxybenzoate]	the early bile salts petromyzonol sulfate and scymnol sulfate, 3-ketolithocholic acid, and the benzoate analog	zebrafish PXR is activated by pregnenolone, scymnol sulfate, and the benzoate analog	n-propyl-p-hydroxybenzoate, which activates BXRα and BXRβ robustly	
	C[C@H](CCCOS(=O)(=O)O)[C@H]1CC[C@H]2[C@@H]3[C@H](O)C[C@H]4C[C@H](O)CC[C@]4(C)[C@H]3C[C@H](O)[C@]12C [petromyzonol sulfate]				the early bile salts petromyzonol sulfate and scymnol sulfate, 3-ketolithocholic acid, and the benzoate analog
	CC(=O)[C@H]1CC[C@H]2[C@@H]3CC=C4C[C@@H](O)CC[C@]4(C)[C@H]3CC[C@]12C [pregnenolone]	Human PXR is activated by micromolar concentrations of the steroid pregenonolone	zebrafish PXR is activated by pregnenolone, scymnol sulfate, and the benzoate analog		
